From PubChem BioAssay (NCI)
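Five concentrations, 48 hours, 96-well plates. GI50: concentration for 50% inhibition of growth. TGI: concentration producing complete growth inhibition.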

Assays:
Experiment in all cases: DTP human tumour cell line panel, 48 h
786-0 renal = system: 786-0 renal
A498 renal = system: A498 renal
A549 NSCLC = system: A549 NSCLC
ACHN renal = system: ACHN renal
BT-549 breast = system: BT-549 breast
CAKI-1 renal = system: CAKI-1 renal
CCRF-CEM leukemia = system: CCRF-CEM leukemia
COLO 205 colon = system: COLO 205 colon
DU-145 prostate = system: DU-145 prostate
EKVX NSCLC = system: EKVX NSCLC
HCC-2998 colon = system: HCC-2998 colon
HCT-116 colon = system: HCT-116 colon
HCT-15 colon = system: HCT-15 colon
HOP-62 NSCLC = system: HOP-62 NSCLC
HOP-92 NSCLC = system: HOP-92 NSCLC
HS 578T breast = system: HS 578T breast
HT29 colon = system: HT29 colon
IGROV1 ovarian = system: IGROV1 ovarian
K-562 leukemia = system: K-562 leukemia
KM12 colon = system: KM12 colon
LOX IMVI melanoma = system: LOX IMVI melanoma
M14 melanoma = system: M14 melanoma
MALME-3M melanoma = system: MALME-3M melanoma
MCF7 breast = system: MCF7 breast
MDA-MB-231 breast = system: MDA-MB-231 breast
MDA-MB-435 = system: MDA-MB-435
MOLT-4 leukemia = system: MOLT-4 leukemia
NCI-H226 lung = system: NCI-H226 lung
NCI-H23 lung = system: NCI-H23 lung
NCI-H460 lung = system: NCI-H460 lung
NCI-H522 lung = system: NCI-H522 lung
NCI/ADR-RES ovarian = system: NCI/ADR-RES ovarian
OVCAR-3 ovarian = system: OVCAR-3 ovarian
OVCAR-4 ovarian = system: OVCAR-4 ovarian
OVCAR-5 ovarian = system: OVCAR-5 ovarian
OVCAR-8 ovarian = system: OVCAR-8 ovarian
PC-3 prostate = system: PC-3 prostate
RPMI-8226 leukemia = system: RPMI-8226 leukemia
RXF 393 renal = system: RXF 393 renal
SF-268 CNS = system: SF-268 CNS
SF-295 CNS = system: SF-295 CNS
SF-539 CNS = system: SF-539 CNS
SK-MEL-2 melanoma = system: SK-MEL-2 melanoma
SK-MEL-28 melanoma = system: SK-MEL-28 melanoma
SK-MEL-5 melanoma = system: SK-MEL-5 melanoma
SK-OV-3 ovarian = system: SK-OV-3 ovarian
SN12C renal = system: SN12C renal
SNB-19 CNS = system: SNB-19 CNS
SNB-75 CNS = system: SNB-75 CNS
SR leukemia = system: SR leukemia
SW-620 colon = system: SW-620 colon
T-47D breast = system: T-47D breast
TK-10 renal = system: TK-10 renal
U251 CNS = system: U251 CNS
UACC-257 melanoma = system: UACC-257 melanoma
UACC-62 melanoma = system: UACC-62 melanoma
UO-31 renal = system: UO-31 renal

`COc1cc(OC)c(C(=O)/C=C/c2cccc(C#N)c2)c(OC)c1` was tested, and the GI50 (786-0 renal) was 1310 nM, the TGI (786-0 renal) was 5520 nM and the GI50 (A498 renal) was 1240 nM. The TGI (A498 renal) was 3300 nM, the GI50 (A549 NSCLC) was 1430 nM and the TGI (A549 NSCLC) was 6100 nM. For the same compound, the GI50 (ACHN renal) was 1130 nM, the TGI (ACHN renal) was 4470 nM and the GI50 (BT-549 breast) was 611 nM. For the same compound, the TGI (BT-549 breast) was 2500 nM, the GI50 (CAKI-1 renal) was 2030 nM and the TGI (CAKI-1 renal) was 7160 nM. The GI50 (CCRF-CEM leukemia) was 1030 nM, the TGI (CCRF-CEM leukemia) was > 50000 nM and the GI50 (COLO 205 colon) was 1790 nM. It also gave a TGI (COLO 205 colon) of 6040 nM, a GI50 (DU-145 prostate) of 1470 nM and a TGI (DU-145 prostate) of 6370 nM. It also gave a GI50 (EKVX NSCLC) of 1370 nM, a TGI (EKVX NSCLC) of 5320 nM and a GI50 (HCC-2998 colon) of 2170 nM. For the same compound, the TGI (HCC-2998 colon) was 7340 nM, the GI50 (HCT-116 colon) was 414 nM and the TGI (HCT-116 colon) was 1620 nM. It also gave a GI50 (HCT-15 colon) of 853 nM, a TGI (HCT-15 colon) of 3020 nM and a GI50 (HOP-62 NSCLC) of 1330 nM. It also gave a TGI (HOP-62 NSCLC) of 4550 nM, a GI50 (HOP-92 NSCLC) of 701 nM and a TGI (HOP-92 NSCLC) of 3260 nM. For the same compound, the GI50 (HS 578T breast) was 1590 nM, the TGI (HS 578T breast) was 44900 nM and the GI50 (HT29 colon) was 1690 nM. For the same compound, the TGI (HT29 colon) was 5870 nM, the GI50 (IGROV1 ovarian) was 1550 nM and the TGI (IGROV1 ovarian) was 5910 nM. The GI50 (K-562 leukemia) was 384 nM, the TGI (K-562 leukemia) was > 50000 nM and the GI50 (KM12 colon) was 1640 nM. The TGI (KM12 colon) was 5970 nM, the GI50 (LOX IMVI melanoma) was 1230 nM and the TGI (LOX IMVI melanoma) was 5180 nM. For the same compound, the GI50 (M14 melanoma) was 978 nM, the TGI (M14 melanoma) was 4680 nM and the GI50 (MALME-3M melanoma) was 1760 nM. The TGI (MALME-3M melanoma) was 8130 nM, the GI50 (MCF7 breast) was 1330 nM and the TGI (MCF7 breast) was 6720 nM. The GI50 (MDA-MB-231 breast) was 2000 nM, the TGI (MDA-MB-231 breast) was 8080 nM and the GI50 (MDA-MB-435) was 1420 nM. For the same compound, the TGI (MDA-MB-435) was 6380 nM, the GI50 (MOLT-4 leukemia) was 1130 nM and the TGI (MOLT-4 leukemia) was > 50000 nM. The GI50 (NCI-H226 lung) was 1280 nM, the TGI (NCI-H226 lung) was 4560 nM and the GI50 (NCI-H23 lung) was 1210 nM. For the same compound, the TGI (NCI-H23 lung) was 4590 nM, the GI50 (NCI-H460 lung) was 1100 nM and the TGI (NCI-H460 lung) was 2860 nM. The GI50 (NCI-H522 lung) was 992 nM, the TGI (NCI-H522 lung) was 2940 nM and the GI50 (NCI/ADR-RES ovarian) was 1440 nM. For the same compound, the TGI (NCI/ADR-RES ovarian) was 10500 nM, the GI50 (OVCAR-3 ovarian) was 1750 nM and the TGI (OVCAR-3 ovarian) was 6740 nM. For the same compound, the GI50 (OVCAR-4 ovarian) was 2030 nM, the TGI (OVCAR-4 ovarian) was 10000 nM and the GI50 (OVCAR-5 ovarian) was 2260 nM. The TGI (OVCAR-5 ovarian) was 7950 nM, the GI50 (OVCAR-8 ovarian) was 1470 nM and the TGI (OVCAR-8 ovarian) was 6510 nM. The GI50 (PC-3 prostate) was 1710 nM, the TGI (PC-3 prostate) was 8260 nM and the GI50 (RPMI-8226 leukemia) was 981 nM. The TGI (RPMI-8226 leukemia) was 4310 nM, the GI50 (RXF 393 renal) was 797 nM and the TGI (RXF 393 renal) was 2050 nM. It also gave a GI50 (SF-268 CNS) of 1690 nM, a TGI (SF-268 CNS) of 7900 nM and a GI50 (SF-295 CNS) of 1310 nM. For the same compound, the TGI (SF-295 CNS) was 5510 nM, the GI50 (SF-539 CNS) was 1410 nM and the TGI (SF-539 CNS) was 4120 nM. It also gave a GI50 (SK-MEL-2 melanoma) of 1490 nM, a TGI (SK-MEL-2 melanoma) of 6440 nM and a GI50 (SK-MEL-28 melanoma) of 1580 nM. The TGI (SK-MEL-28 melanoma) was 6240 nM, the GI50 (SK-MEL-5 melanoma) was 1550 nM and the TGI (SK-MEL-5 melanoma) was 6160 nM. For the same compound, the GI50 (SK-OV-3 ovarian) was 1820 nM, the TGI (SK-OV-3 ovarian) was > 50000 nM and the GI50 (SN12C renal) was 1500 nM. It also gave a TGI (SN12C renal) of 7100 nM, a GI50 (SNB-19 CNS) of 1670 nM and a TGI (SNB-19 CNS) of 6610 nM. For the same compound, the GI50 (SNB-75 CNS) was 1310 nM, the TGI (SNB-75 CNS) was 5620 nM and the GI50 (SR leukemia) was 241 nM. For the same compound, the TGI (SR leukemia) was > 50000 nM, the GI50 (SW-620 colon) was 1460 nM and the TGI (SW-620 colon) was 5150 nM. The GI50 (T-47D breast) was 1170 nM, the TGI (T-47D breast) was 5530 nM and the GI50 (TK-10 renal) was 1630 nM. The TGI (TK-10 renal) was 5520 nM, the GI50 (U251 CNS) was 1530 nM and the TGI (U251 CNS) was 5760 nM. For the same compound, the GI50 (UACC-257 melanoma) was 2100 nM, the TGI (UACC-257 melanoma) was 8690 nM and the GI50 (UACC-62 melanoma) was 1220 nM. For the same compound, the TGI (UACC-62 melanoma) was 4920 nM, the GI50 (UO-31 renal) was 1130 nM and the TGI (UO-31 renal) was 4860 nM.
